Source: patent US20210318318A1, “Kinase Activity In Tumors” (Institute For Cancer Research d/b/a The Research Institute …, priority 2018, published 2021)

Test system: COV362 cells
Assay: Migration assay (xCELLigence RTCA)
Assay type: cell-based, human
Conditions: 1 μM, 24 hour period
Protocol: COV362 cells were treated with 1 μM of A-674563 or DMSO and migration monitored over a 24 hour period using the xCELLigence Real-Time Cell Analyzer (RTCA).
Cell migration assays were performed using the xCELLigence RTCA DP Instrument (ACEA Biosciences) in a CIM-Plate 16 (ACEA Biosciences). Complete medium was added to the lower chambers of the CIM-Plate (or serum free medium for negative control). In the upper chambers, 30 μL serum free medium was added to each well and the CIM-Plate was placed in the instrument to equilibrate for 1 hr at 37° C. Following this equilibration step, a background measurement was taken. The CIM-Plate was removed from the instrument, and COV362 cells were added to the upper chambers at 50,000 cells per well in serum free medium. The CIM-Plate was left at 25° C. for 30 minutes to allow the cells to settle at the bottom of the well. The plate was then returned to the instrument, and cell index reads were taken once every 15 minutes for 24 hours. For the siRNA experiment, the cells were transfected 24 hours prior to the start of the assay. For the A-674563 experiment, cells were pretreated with 1 μM inhibitor or DMSO 24 hours prior, and both upper and lower chambers contained 1 μM inhibitor or DMSO.

Q: For `Cc1[nH]nc2ccc(-c3cncc(OC[C@@H](N)Cc4ccccc4)c3)cc12` [A-674563], which cell migration is on record?
A: reduced cell migration
